According to patent US7141680B2, “Aromatic compounds possessing antifungal or antibacterial activity” (Genelabs Technologies, Inc., priority 2002, dated 2006):
Where a name gives a salt, the structure may show the parent alone.

Tests used:
[1] = tested on: Aspergillus species; assay: Minimum inhibitory concentration (MIC) assay, filamentous fungi; assay type: cell-based; conditions: antifungal activity, lowest concentration at which 75% inhibition of growth is observed after 48 h
Procedure: (§1) The assays described below were used to measure the minimum inhibitory concentration (MIC) of a compound necessary to inhibit visible growth of the organism tested. These assays are adapted from NCCLS protocols M7-A4 and M27-A (NCCLS vol 17:9 and vol 17:2) as modified by Sandven, S., Clin. Micro. (1999) 37:12, p. 3856–3859. MIC values for Aspergillus species were determined using NCCLS protocol M38-P.
(§2) All compounds were dissolved in 100% DMSO to a stock concentration of 10 mM and used fresh stock compounds in powder form were kept frozen until needed and used freshly. When used for test purposes, compounds were diluted in the appropriate media depending on the organism being tested.
(§3) For yeast and aspergillus species, seven 1:2 serial dilutions of compound in appropriate media buffered with MOPS at pH 7.0 were prepared such that the final starting test compound concentrations were 44.4 μM for yeast and 50 μM aspergillus species. For bacteria, dilutions were made in growth media used for the particular bacteria being tested.
Inoculums are made by incubating Aspergillus species for 7 days at 35° C. on potato dextrose agar slants. Slants are then covered with 1.0 mL of 0.85% saline, one drop of Tween 20 is added and colonies are teased with a sterile transfer loop to create a suspension which is allowed to sit for 5 min so heavier particles can drop out. The upper suspension is separated and adjusted to an optical density of 0.09 to 0.11. The resulting suspension is diluted 1:50, which yields 2× the final inoculum needed. Micro dilution trays are prepared as with yeast and incubated for 48 h at 35° C. For our purposes the MIC is defined as the lowest compound concentration at which 75% inhibition of growth is observed after 48 h.

[2] = tested on: bacteria; assay: Minimum inhibitory concentration (MIC) assay, bacteria; assay type: cell-based
Procedure: as §1, §2, §3
Five well-separated colonies from a 24 h Sabouraud Dextrose plate incubated at 35° C. were picked and resuspended into 2 mL of normal saline. The O.D.530 was read and the culture was adjusted to 0.5 McFarland units with normal saline. A 1:2000 dilution was made with RPMI 1640 media buffered with MOPS at pH 7.0 and 100 μL of this inoculum preparation was added to an equal volume of test compound-containing media. 25 μL of the redox indicator Alamar Blue (Biosource International) was added to each well and the plates were incubated for 48 h at 35° C. Wells having yeast growth changed color from blue to pink.
Inoculums are made in the same manner as yeast except all dilutions are made in normal saline, with a final dilution of 1:200 and an inoculum of 10 μL.

Row | MIC [1] | Structure (SMILES) | MIC [2]
1 | ≤ 50 µM | C[n+]1ccccc1NCCNC(=O)c1ccc2[nH]c(C(=O)Nc3ccc4cc(C(=O)NCCNc5cccc[n+]5C)[nH]c4c3)cc2c1 [Compound 170, 1H-Indole-2,5-dicarboxylic acid 5-[(2-(1-methylpyridiniu-2-yl)amino-ethyl)-amide] 2-{[2-(2-(1-methylpyridiniu-2-yl)amino-ethylcarbamoyl)-1H-indol-6-yl]-amide}] | 
2 | ≤ 50 µM | N=C(N)NCCNC(=O)c1cc2ccc(NC(=O)c3cc4cc(C(=O)NCNC(=N)N)ccc4[nH]3)cc2[nH]1 [Compound 172, 1H-Indole-2,5-dicarboxylic acid 2-{[2-(2-guanidino-ethylcarbamoyl)-1H-indol-6-yl]-amide} 5-guanidinomethyl-amide] | 
3 | ≤ 50 µM | N=C(N)NCNC(=O)c1ccc2[nH]c(C(=O)Nc3ccc4cc(C(=O)NCNC(=N)N)[nH]c4c3)cc2c1 [Compound 173, 1H-Indole-2,5-dicarboxylic acid 5-guanidinomethyl-amide 2-{[2-(guanidinomethyl-carbamoyl)-1H-indol-6-yl]-amide}] | 
4 | ≤ 50 µM | N=C(N)NCCNC(=O)c1ccc2[nH]c(C(=O)Nc3ccc4[nH]c(C(=O)NCCNC(=N)N)nc4c3)cc2c1 [Compound 175, 1H-Indole-2,5-dicarboxylic acid 5-[(2-guanidino-ethyl)-amide] 2-{[2-(2-guanidino-ethylcarbamoyl)-1H-benzoimidazol-5-yl]-amide)] | 
5 | ≤ 50 µM | CN(CCNC(=N)N)C(=O)c1ccc2[nH]c(C(=O)Nc3ccc4cc(C(=O)NCCNC(=N)N)[nH]c4c3)cc2c1 [Compound 176, 1H-Indole-2,5-dicarboxylic acid 2-{[2-(2-guanidino-ethylcarbamoyl)-1H-indol-6-yl]-amide} 5-[(2-guanidino-ethyl)-methyl-amide]] | 
6 | ≤ 50 µM | N=C(N)NCCNC(=O)c1ccc2sc(C(=O)Nc3ccc4sc(C(=O)NCCNC(=N)N)cc4c3)cc2c1 [Compound 177, Benzo[b]thiophene-2,5-dicarboxylic acid 5-[(2-guanidino-ethyl)-amide]2-{[2-(2-guanidino-ethylcarbamoyl)-benzo[b]thiophen-5-yl]-amide}] | 
7 | ≤ 50 µM | N=C(N)NCCNC(=O)c1ccc2[nH]c(C(=O)Nc3ccc4cc(C(=O)NCCNC(=N)N)sc4c3)cc2c1 [Compound 178, 1H-Indole-2,5-dicarboxylic acid 5-[(2-guanidino-ethyl)-amide] 2-{[2-(2-guanidino-ethylcarbamoyl)-benzo[b]thiophen-6-yl]-amide}] | 
8 | ≤ 50 µM | CNCCNC(=O)c1cc2ccc(NC(=O)c3cc4cc(C(=O)NCCNC(=N)N)ccc4[nH]3)cc2[nH]1 [Compound 182, 1H-Indole-2,5-dicarboxylic acid 5-[(2-guanidinoethyl)amide] 2-{[2-(2-methylaminoethylcarbamoyl)-1H-indol-6-yl]amide}] | 
9 | ≤ 50 µM | CN(C)CCNC(=O)c1cc2ccc(NC(=O)c3cc4cc(C(=O)NCCNC(=N)N)ccc4[nH]3)cc2[nH]1 [Compound 183, 1H-Indole-2,5-dicarboxylic acid 2-{[2-(2-dimethylaminoethylcarbamoyl)-1H-indol-6-yl]amide} 5-[(2-guanidinoethyl)amide]] | 
10 | ≤ 50 µM | N#C/N=C(/N)NCCNC(=O)c1cc2ccc(NC(=O)c3cc4cc(C(=O)NCCNC(=N)N)ccc4[nH]3)cc2[nH]1 [Compound 184, 1H-Indole-2,5-dicarboxylic acid 5-{[2-(guanidino)ethyl]amide} 2-({2-[2-(N′-cyanoguanidino)ethylcarbamoyl]-1H-indol-6-yl}amide)] | 

More lines, now with the values behind:

Row | Structure (SMILES) | MIC [1] | MIC [2]
11 | CC(=N)NCCNC(=O)c1cc2cc(NC(=O)c3ccc4[nH]c(C(=O)NCCNC(C)=N)cc4c3)ccc2[nH]1 [Compound 9] | ≤ 50 µM | 
12 | N=C(N)NCCNC(=O)c1cc2cc(NC(=O)c3ccc4[nH]c(C(=O)NCCNC(=N)N)cc4c3)ccc2[nH]1 [Compound 10, 1H-Indole-2,5-dicarboxylic acid 2-[(2-gutanidino-ethyl)-amide] 5-{[2-(2-guanidino-ethylcarbamoyl)-1H-indol-5-yl]-amide}] | ≤ 50 µM | ≤ 45.5 µM
13 | N=C(N)NCC1CCC(CNC(=O)c2cc3cc(NC(=O)c4ccc5[nH]c(C(=O)NCC6CCC(CNC(=N)N)CC6)cc5c4)ccc3[nH]2)CC1 (stereo not drawn) [Compound 18, 1H-Indole-2,5-dicarboxylic acid 2-[(4-guanidinomethyl-cyclohexylmethyl)-amide] 5-({2-[(4-guanidinomethyl-cyclohexylmethyl)-carbamoyl}-1H-indol-5-yl}-amide)] | ≤ 50 µM | ≤ 45.5 µM
14 | N=C(N)NCC(O)CNC(=O)c1cc2cc(NC(=O)c3ccc4[nH]c(C(=O)NCC(O)CNC(=N)N)cc4c3)ccc2[nH]1 (stereo not drawn) [Compound 19, 1H-Indole-2,5-dicarboxylic acid 2-[(3-guanidino-2-hydroxy-propyl)-amide] 5-{[2-(3-guanidino-2-hydroxy-propylcarbamoyl)-1H-indol-5-yl]-amide}] | ≤ 50 µM | ≤ 45.5 µM
15 | N=C(N)NCCCCCNC(=O)c1cc2cc(NC(=O)c3ccc4[nH]c(C(=O)NCCCCCNC(=N)N)cc4c3)ccc2[nH]1 [Compound 20, 1H-Indole-2,5-dicarboxylic acid 2-[(5-guanidino-pentyl)-amide] 5-{[2-(5-guanidino-pentylcarbanzoyl)-1H-indol-5-yl]-amide}] | ≤ 50 µM | ≤ 45.5 µM
16 | N=C(N)NC1CCC(NC(=O)c2cc3cc(NC(=O)c4ccc5[nH]c(C(=O)NC6CCC(NC(=N)N)CC6)cc5c4)ccc3[nH]2)CC1 (stereo not drawn) [Compound 21, 1H-Indole-2,5-dicarboxylic acid 2-[(4-guanidino-cyclohexyl)-amide] 5-{[2-(4-guaizidino-cyclohexylcarbamoyl)-1H-indol-5-yl]-amide}] | ≤ 50 µM | ≤ 45.5 µM
17 | N=C(N)NCc1ccc(CNC(=O)c2cc3cc(NC(=O)c4ccc5[nH]c(C(=O)NCc6ccc(CNC(=N)N)cc6)cc5c4)ccc3[nH]2)cc1 [Compound 22, 1H-Indole-2,5-dicarboxylic acid 2-(4-guanidinomethyl-benzylamide) 5-{[2-(4-guanidinomethyl-benzylcarbamoyl)-1H-indol-5-yl]-amide}] | ≤ 50 µM | ≤ 45.5 µM
18 | CC(C)Cn1cc(NC(=O)c2ccc3[nH]c(C(=O)NCCNC(=N)N)cc3c2)cc1C(=O)NCCNC(=N)N [Compound 29, 1H-indole-2,5-dicarboxylic acid 2-[(2-guanidino-ethyl)-amide] 5-{[5-(2-guanidino-ethylcarbamoyl)-1-isobutyl-1H-pyrrol-3-yl]-amide}] |  | ≤ 45.5 µM
19 | N=C(N)NCCC[C@H](N)C(=O)NCCCNC(=O)c1cc2ccc(NC(=O)c3cc4cc(C(=O)NCCNC(=O)[C@@H](N)CCCNC(=N)N)ccc4[nH]3)cc2[nH]1 [Compound 66, 1H-Indole-2,5-dicarboxylic acid 5-{[2-(2-amino-5-guanidino-pentanoylamino)-ethyl]-amide} 2-({2-[3-(2-amino-5-guanidino-pentanoylamino)-propylcarbamoyl]-1H-indol-6-yl}-amide)] |  | ≤ 45.5 µM
20 | N=C(N)NCCNC(=O)c1ccc(C(=O)Nc2ccc3[nH]c(C(=O)NCCNC(=N)N)cc3c2)cc1 [Compound 70, N-(2-Guanidino-ethyl)-N′-[2-(2-guanidino-ethylcarbamoyl)-1H-indol-5-yl]-terephthalamide] | ≤ 50 µM | 
21 | C/N=C(/NCCNC(=O)c1ccc2[nH]c(C(=O)Nc3ccc4[nH]c(C(=O)NCCN/C(=N/C)SC)cc4c3)cc2c1)SC [Compound 90, 1H-Indole-2,5-dicarboxylic acid 5-{[2-(2,3-dimethylisothioureido)ethyl]amide} 2-({2-[2-(2,3-dimethylisothioureido)ethylcarbamoyl]-1H-indol-5-yl}amide)dihydrochloride] |  | ≤ 45.5 µM
22 | CC(C)(C)OC(=O)NCCNC(=O)c1cc2cc(NC(=O)c3cc4cc(N)ccc4[nH]3)ccc2[nH]1 [Compound 107, [2-({5-[(5-Amino-1H-indole-2-carbonyl)-amino]-1H-indole-2-carbonyl}-amino)-ethyl]-carbamic acid tert-butyl ester] |  | ≤ 45.5 µM
23 | N=C(N)NCCNC(=O)c1cc2cc(NC(=O)c3cc4cc(NC(=O)CNC(=N)N)ccc4o3)ccc2[nH]1 [Compound 135, 5-{[5-(2-guanidino-acetylamino)-benzofuran-2-carbonyl]-amino}-1H-indole-2-carboxylic acid (2-guanidino-ethyl)-amide] | ≤ 50 µM | 
24 | N=C(N)NCCNC(=O)c1cc2cc(NC(=O)c3cc4cc(NC(=O)CNC(=N)N)ccc4[nH]3)ccc2[nH]1 [Compound 138, 5-{[5-(2-guanidino-acetylamino)-1H-indole-2-carbonyl]-amino}-1H-indole-2-carboxylic acid (2-guanidino-ethyl)-amide] | ≤ 50 µM | 
